Data taken from patent US5707966A, “Antithrombotic agents” (Eli Lilly and Company, priority 1995, dated 1998).
Counter-ions that a name gives are not always drawn. Like-named read-outs stand apart in the source and are kept apart here.

Experiments:
Format in all cases: biochemical
Bovine trypsin = molecular target: T1, Bovine trypsin (Bos taurus, UniProt P00760); assay: Kass with trypsin, chromogenic substrate; details: substrate N-Benzoyl-Phe-Val-Arg-p-nitroanilide
T1 construct: Bovine trypsin is purchased; purchased Worthington Biochemicals, Freehold, N.J
T1 sequence (P00760 24-246): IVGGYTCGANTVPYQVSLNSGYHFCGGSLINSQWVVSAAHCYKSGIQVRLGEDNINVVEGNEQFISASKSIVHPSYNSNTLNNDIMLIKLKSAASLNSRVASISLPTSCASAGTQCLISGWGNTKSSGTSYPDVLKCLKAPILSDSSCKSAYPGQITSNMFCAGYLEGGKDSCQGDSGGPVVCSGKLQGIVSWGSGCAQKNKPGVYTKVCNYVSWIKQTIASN
Description: By substantially following the procedures described above for human thrombin, and using other human blood coagulation system serine proteases and proteases of the fibrinolytic system with the appropriate chromogenic substrates, identified below, selectivity of the compounds of the present invention with respect to the coagulation factor serine proteases and with respect to the fibrinolytic system serine proteases are evaluated as well as their substantial lack of interference with serine proteases of the fibrinolytic system. Thrombin inhibitors preferably should spare fibrinolysis induced by urokinase, tissue plasminogen activator (t-PA) and streptokinase. This would be important to the therapeutic use of such agents as an adjunct to streptokinase, t-PA or urokinase thrombolytic therapy and to the use of such agents as an endogenous fibrinolysis-sparing (with respect to t-PA and urokinase) antithrombotic agent. In addition to the lack of interference with the amidase activity of the fibrinolytic proteases, such fibrinolytic system sparing can be studied by the use of human plasma clots and their lysis by the respective fibrinolytic plasminogen activators.
Human factors X, Xa, IXa, XIa, and XIIa are purchased from Enzyme Research Laboratories, South Bend, Ind.; human urokinase from Leo Pharmaceuticals, Denmark; and recombinant activated Protein C (aPC) is prepared at Eli Lilly and Co. substantially according to U.S. Patent No. 4,981,952. Chromogenic substrates: N-Benzoyl-Ile-Glu-Gly-Arg-p-nitroanilide (for factor Xa); N-Cbz-D-Arg-Gly-Arg-p-nitroanilide (for factor IXa assay as the factor Xa substrate); Pyroglutamyl-Pro-Arg-p-nitroanilide (for Factor XIa and for aPC); H-D-Pro-Phe-Arg-p-nitroanilide (for factor XIIa); and Pyroglutamyl-Gly-Arg-p-nitroanilide (for urokinase); are purchased from KabiVitrum, Stockholm, Sweden, or from Midwest Biotech, Fishers, Ind. Bovine trypsin is purchased from Worthington Biochemicals, Freehold, N.J., and human plasma kallikrein from Kabi Vitrum, Stockholm, Sweden. Chromogenic substrate H-D-Pro-Phe-Arg-p-nitroanilide for plasma kallikrein is purchased from Kabi Vitrum, Stockholm, Sweden. N-Benzoyl-Phe-Val-Arg-p-nitroanilide, the substrate for human thrombin and for trypsin, is synthesized according to procedures described above for the compounds of the present invention, using known methods of peptide coupling from commercially available reactants or purchased from Midwest Biotech, Fishers, Ind.

Human Thrombin = Human Thrombin (Homo sapiens, UniProt P00734); assay: Inhibition of amidase activity of thrombin (Kass)
Human plasma [1] = assay: Human plasma anticoagulation, prothrombin time (PT); details: concentration required to double the PT, linear extrapolation
Description: (§1) Dog plasma and rat plasma is obtained from conscious mixed-breed hounds (either sex, Hazelton-LRE, Kalamazoo, Mich., U.S.A.) or from anesthetized male Sprague-Dawley rats (Harlan Sprague-Dawley, Inc., Indianapolis, Ind., U.S.A.) by venipuncture into 3.8 percent citrate. Fibrinogen is prepared from in-date ACD human blood as the fraction I-2 according to previous procedures and specifications. […] Human fibrinogen is also purchased as 98 percent pure/plasmin free from American Diagnostica, Greenwich, Conn. Coagulation reagents ACTIN, Thromboplastin, and Human plasma are from Baxter Healthcare Corp., Dade Division, Miami, Fla. Bovine thrombin from Parke-Davis ([…], Mich.) is used for coagulation assays in plasma.
(§2) Coagulation assay procedures are as previously described. […] A CoAScreener coagulation instrument (American LABor, Inc.) is used for all coagulation assay measurements. The prothrombin time (PT) is measured by adding 0.05 mL saline and 0.05 mL Thromboplastin-C reagent to 0.05 mL test plasma. The activated partial thromboplastin time (APTT) is measured by incubation of 0.05 mL test plasma with 0.05 mL Actin reagent for 120 seconds followed by 0.05 mL CaCl2 (0.02M). The thrombin time (TT) is measured by adding 0.05 mL saline and 0.05 mL thrombin (10 NIH units/mL) to 0.05 mL test plasma. The compounds of Formula I are added to human or animal plasma over a wide range of concentrations to determine prolongation effects on the APTT, PT, and TT assays. Linear extrapolations are performed to estimate the concentrations required to double the clotting time for each assay.

Human plasma [2] = assay: Human plasma anticoagulation, thrombin time (TT); details: concentration required to double the thrombin time, linear extrapolation
Description: as §1, §2

Human plasma [3] = assay: Human plasma anticoagulation, activated partial thromboplastin time (APTT); details: concentration required to double the APTT, linear extrapolation
Description: as §1, §2

[4] = mean over a range of concentrations, […]

Kass Trypsin (Bovine trypsin) | Kass Human Thrombin (Human Thrombin; [4]) | Structure (SMILES) | Human Plasma Anticoagulation 2× Clotting time PT (Human plasma [1]) | Human Plasma Anticoagulation 2× Clotting time TT (Human plasma [2]) | Human Plasma Anticoagulation 2× Clotting time APTT (Human plasma [3]) | Kass Human Thrombin (Human Thrombin)
– | 7.6 × 10^6 (L/mole) | Nc1ccc(CNC(=O)[C@@H]2CCCN2C(=O)[C@@H](CC2CCCCC2)NCC(=O)O)cc1 [Example 62, HO2 CCH2 -D-Cha-Pro-4-NHCH2 C6 H4 NH2.HCl] | – | 54 ng/mL | – | –
– | 0.31 × 10^6 (L/mole) | Nc1ccc(CCNC(=O)[C@@H]2CCCN2C(=O)[C@@H](CC2CCCCC2)NCC(=O)O)cc1 [Example 63, HO2 CCH2 -D-Cha-Pro-4-NHCH2 CH2 C6 H4 NH2.HCl] | – | 680 ng/mL | – | –
4.6 × 10^6 (L/mole) | 120 × 10^6 (L/mole) | N=C(N)c1ccc(CNC(=O)[C@@H]2CCCN2C(=O)[C@@H](CC2CCCCC2)NCC(=O)O)nc1 [Example 66, HO2 CCH2 -D-Cha-Pro-2-NHCH2 -5-amidinopyridine.HCl] | 270 ng/mL | 7.9 ng/mL | 180 ng/mL | –
– | 28 × 10^6 (L/mole) | Nc1cc(CNC(=O)[C@@H]2CCCN2C(=O)[C@@H](CC2CCCCC2)NCC(=O)O)ccn1 [Example 73, HO2 CCH2 -D-Cha-Pro-4-NHCH2 -2-aminopyridine.HCl] | 330 ng/mL | 21 ng/mL | 340 ng/mL | –
– | 29 × 10^6 (L/mole) | Nc1ccc(CNC(=O)[C@@H]2CCCN2C(=O)[C@@H](CC2CCCCC2)NCC(=O)O)cn1 [Example 74, HO2 CCH2 -D-Cha-Pro-5-NHCH2 -2-aminopyridine.HCl] | 350 ng/mL | 20 ng/mL | 420 ng/mL | –
– | 0.45 × 10^6 (L/mole) | Nc1ccc(CCNC(=O)[C@@H]2CCCN2C(=O)[C@@H](CC2CCCCC2)NCC(=O)O)cn1 [Example 75, HO2 CCH2 -D-Cha-Pro-5-NHCH2 CH2 -2-aminopyridine.HCl] | – | – | – | –
0.36 × 10^6 (L/mole) | 12 × 10^6 (L/mole) | Nc1cc(CCNC(=O)[C@@H]2CCCN2C(=O)[C@@H](CC2CCCCC2)NCC(=O)O)ccn1 [Example 76, HO2 CCH2 -D-Cha-Pro-4-NHCH2 CH2 -2-aminopyridine.HCl] | 560 ng/mL | 29 ng/mL | 490 ng/mL | –

The remaining lines, values behind:

Structure (SMILES) | Kass Trypsin (Bovine trypsin) | Kass Human Thrombin (Human Thrombin; [4]) | Human Plasma Anticoagulation 2× Clotting time PT (Human plasma [1]) | Human Plasma Anticoagulation 2× Clotting time TT (Human plasma [2]) | Human Plasma Anticoagulation 2× Clotting time APTT (Human plasma [3]) | Kass Human Thrombin (Human Thrombin)
CCS(=O)(=O)N[C@H](Cc1ccccc1)C(=O)N1CCC[C@H]1C(=O)NCCc1cccc(NC(=N)N)c1 [Example 37, EtSO2 -D-Phe-Pro-m-NHCH2 CH2 C6 H4 NHC(NH)NH2.HCl] | < 0.009 × 10^6 (L/mole) | 0.02 × 10^6 (L/mole) | > 9,000 ng/mL | > 9,000 ng/mL | > 9,000 ng/mL | –
Cl.N=C(N)c1cc(CNC(=O)[C@@H]2CCCN2C(=O)[C@@H](CC2CCCCC2)NCC(=O)O)cs1 [Example 65, HO2 CCH2 -D-Cha-pro-4-NHCH2-2-amidinothiophene.HCl] | 570 × 10^6 (L/mole) | 4,500 × 10^6 (L/mole) | – | 1 ng/mL | 48 ng/mL | –
N=C(N)C1CCC(CNC(=O)[C@@H]2CCCN2C(=O)[C@@H](CC2CCCCC2)NCC(=O)O)NC1 (stereo partly drawn) [Example 67, HO2 CCH2 -D-Cha-pro-2-NHCH2-5-amidinopiperidine.HCl] | – | – | 1,300 ng/mL | 34 ng/mL | 1,800 ng/mL | 11
N=C(N)C1=CNC(CNC(=O)[C@@H]2CCCN2C(=O)[C@@H](CC2CCCCC2)NCC(=O)O)CC1 (stereo partly drawn) [Example 68, HO2 CCH2 -D-Cha-Pro-2-NHCH2 -5-amidino-5,6-dehydro-piperidine.HCl] | – | 600 × 10^6 (L/mole) | 190 ng/mL | 4 ng/mL | 49 ng/mL | –
N=C(N)c1ccc(CNC(=O)[C@@H]2CCCN2C(=O)[C@@H](CC2CCCCC2)NCC(=O)O)nn1 [Example 69, HO2 CCH2 -D-Cha-Pro-3-NHCH2 -6-amidinopyridazine.HCl] | 3.7 × 10^6 (L/mole) | 340 × 10^6 (L/mole) | 220 ng/mL | 5 ng/mL | 110 ng/mL | –
N=C(N)N1CC=C(CNC(=O)[C@@H]2CCCN2C(=O)[C@@H](CC2CCCCC2)NCC(=O)O)CC1 [Example 70, HO2 CCH2 -D-Cha-Pro-4-NHCH2 -1-amidino-3,4-dehydro-piperidine.HCl] | 9.8 × 10^6 (L/mole) | 430 × 10^6 (L/mole) | 180 ng/mL | 2 ng/mL | 160 ng/mL | –
N=C(N)c1ccc(CNC(=O)[C@@H]2CCCN2C(=O)[C@@H](CC2CCCCC2)NCC(=O)O)c(F)c1 [Example 71, HO2 CCH2 -D-Cha-Pro-4-NHCH2 -3-F-benzamidine.HCl] | 240 × 10^6 (L/mole) | 1,400 × 10^6 (L/mole) | 150 ng/mL | 1 ng/mL | 89 ng/mL | –
N=C(N)c1cc(F)c(CNC(=O)[C@@H]2CCCN2C(=O)[C@@H](CC2CCCCC2)NCC(=O)O)c(F)c1 [Example 72, HO2 CCH2 -D-Cha-Pro-4-NHCH2 -3,5-F2 -benzamidine.HCl] | 280 × 10^6 (L/mole) | 2,300 × 10^6 (L/mole) | 160 ng/mL | 1 ng/mL | 160 ng/mL | –
Nc1ccc(CNC(=O)[C@@H]2CCCN2C(=O)[C@@H](CC2CCCCC2)NCC(=O)O)cc1F [Example 77, HO2 CCH2 -D-Cha-Pro-4-NHCH2 -2-F-aniline.HCl] | – | – | 890 ng/mL | 53 ng/mL | 1,600 ng/mL | 11
CCS(=O)(=O)N[C@H](CC1CCCCC1)C(=O)N1CCC[C@H]1C(=O)NCc1ccc(N)cc1F [Example 82, EtSO2 -D-Cha-Pro-4-NHCH2 -3-F-C6 H3 NH2.HCl] | – | 5.0 × 10^6 (L/mole) | 3,000 ng/mL | 130 ng/mL | 3,800 ng/mL | –
